For 10 compounds, IC50 results are on record in US20260070887A1 (Shenzhen Zhongge Biological Technology Co., Ltd., priority 2022, published 2026).

Molecules are shown by their SMILES. Where two headings read alike, the source gives them in different places. A value given as a limit tells only on which side of the number the result lay.

The subject of assay [1] is OVCAR-3 cells. Kind of assay: OVCAR-3 cell proliferation (Cell Titer-Glo, 10 days). It counts as cell-based, human. Summed up: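 400 cells per well were seeded onto pre-dispensed compound (final 0.12 nM to 10 μM) in RPMI-1640 with 20% FBS and insulin, then co-cultured for 10 days. Viability was read as Cell Titer-Glo luminescence, inhibition was taken against 0.1% DMSO control, and IC50 came from nonlinear concentration-inhibition regression.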
On the technique in general: Cellular ATP, detected with luciferase, serves as a proxy for viable cell number.

For assay [2], the system named is HT-29 cells. Kind of assay: HT-29 cell proliferation (Cell Titer-Glo, 6 days). It counts as cell-based. The essentials: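 Cells seeded at 4,170 cells/mL in McCoy's 5a with 10% FBS, compound added from DMSO stock, grown 6 days at 37 °C, 5% CO2. Cell Titer-Glo luminescence; inhibition vs 0.3% DMSO control, IC50 by nonlinear regression.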
The subject of assay [3] is A2780 cells. In words: A2780 cell anti-proliferation assay. Conditions: 6 days, Cell Titer-Glo. Format: cell-based. The protocol:
A2780 (ECACC) cells were cultured in RPMI-1640 complete medium (Gibco, A1049101) containing 10% fetal bovine serum (Gibco, 10099-141C), 100 U penicillin and 100 μg/mL streptomycin (Gibco, 15140-122). The Promega kit Cell Titer-Glo (Promega: G7572) was used in this method for test.
A2780 cells were cultured in T75 cell flasks (Corning, 430641) and the cells were placed in a 37° C., 5% CO2 incubator. Cells were passaged when reaching a cell density of 70%-80%, once every five days. To perform the experiment, the test compounds were dissolved in DMSO to prepare a 10 mM stock solution, and the test compounds were added to the 384-well cell test plate (Corning, 3765) at the predetermined concentration (19.5 nM-[…]) using ECHO. A2780 cells were digested and 4000 cells (60 μL medium) were seeded per well in the test plate. The 384-well plate was then centrifuged at 500 rpm for 1 minute, and then placed in a 37° C., 5% CO2 incubator for 6 days of cultivation. Six days later, the cell culture plate was equilibrated for 10 minutes at room temperature, 25 μL of Cell Titer-Glo was added to each well, and the mixture was shaken and mixed well and let stand for 5 minutes. The luminescence values for samples in various wells were read using a microplate reader in Luminescence mode.
The percentage of inhibition of A2780 cell proliferation by the test compound at each concentration was calculated by comparing with the values of the control group (0.2% DMSO). The IC50 values of the compounds were obtained by concentration-inhibition rate nonlinear regression analysis of the test compounds using GraphPad Prism 9.

For `O=C(Nc1ccc(F)c2c1cc1n2CCOC1)c1ccc(NS(=O)(=O)CCO)cc1N1CCC(=C(F)F)CC1` [Example 321, 2-(4-(difluoromethylene)piperidin-1-yl)-N-(6-fluoro-3,4-dihydro-1H-[1,4]oxazino[4,3-a]indol-9-yl)-4-((2-hydroxyethyl)sulfonamido)benzamide], the half-inhibitory concentration (IC50) in assay [1] (Homo sapiens, OVCAR-3, 240 h) is 0.05 to 0.5 µM; in assay [2] (Homo sapiens, HT-29, 144 h), 0.2 to 1 µM; in assay [3] (Homo sapiens, A2780, 144 h), greater than 10 µM.

For `N#Cc1ccc(NC(=O)c2ccc(NS(=O)(=O)CCO)cc2N2CCC(=C(F)F)CC2)c2cc3n(c12)CCOC3` [Example 364, N-(6-cyano-3,4-dihydro-1H-[1,4]oxazino[4,3-a]indol-9-yl)-2-(4-(difluoromethylene)piperidin-1-yl)-4-((2-hydroxyethyl)sulfonamido)benzamide], the IC50 in assay [1] (Homo sapiens, OVCAR-3, 240 h) was 0.05 to 0.5 µM; in assay [2] (Homo sapiens, HT-29, 144 h), 0.2 to 1 µM; in assay [3] (Homo sapiens, A2780, 144 h), 9.4 µM.

Turning to `CC1(C)Cn2c(cc3c(NC(=O)c4ccc(NS(=O)(=O)CCO)cc4N4CCC(=C(F)F)CC4)cccc32)CO1` [Example 370, 2-(4-(difluoromethylene)piperidin-1-yl)-N-(3,3-dimethyl-3,4-dihydro-1H-[1,4]oxazino[4,3-a]indol-9-yl)-4-((2-hydroxyethyl)sulfonamido)benzamide], the concentration for half-maximal inhibition (IC50) in assay [1] (Homo sapiens, OVCAR-3, 240 h) is no more than 0.05 µM; in assay [2] (Homo sapiens, HT-29, 144 h), 0.2 to 1 µM; in assay [3] (Homo sapiens, A2780, 144 h) it was greater than 10 µM.

As to `CC1(C)Cn2c(cc3c(NC(=O)c4ccc(NS(=O)(=O)CCO)cc4N4CCC5(CC4)CC5)cccc32)CO1` [Example 371, N-(3,3-dimethyl-3,4-dihydro-1H-[1,4]oxazino[4,3-a]indol-9-yl)-4-(2-hydroxyethylsulfonamido)-2-(6-azaspiro[2.5]octan-6-yl)benzamide], the IC50 in assay [1] (Homo sapiens, OVCAR-3, 240 h) is no more than 0.05 µM; in assay [2] (Homo sapiens, HT-29, 144 h) it was no more than 0.2 µM; in assay [3] (Homo sapiens, A2780, 144 h), greater than 10 µM.

`CC1(O)CCCn2c1cc1c(NC(=O)c3ccc(NS(=O)(=O)CCO)cc3N3CCC4(CC3)CC4)cccc12` (stereo not drawn) [Example 372]: the values for the IC50 in assay [1], in assay [2] and in assay [3] were no more than 0.05 µM, no more than 0.2 µM and greater than 10 µM, respectively.

`O=C(Nc1cccc2c1cc1n2CCC(F)(F)C1)c1ccc(NS(=O)(=O)CCO)cc1N1CCC(=C(F)F)CC1` [Example 374, N-(8,8-difluoro-6,7,8,9-tetrahydropyridino[1,2-a]indol-1-yl)-2-(4-(difluoromethylene)piperidin-1-yl)-4-((2-hydroxyethyl)sulfonamido)benzamide]: the IC50 was no more than 0.05 µM in assay [1] (Homo sapiens, OVCAR-3, 240 h); no more than 0.2 µM in assay [2] (Homo sapiens, HT-29, 144 h); 8.5 µM in assay [3] (Homo sapiens, A2780, 144 h).

Regarding `N#Cc1ccc(NC(=O)c2ccc(NS(=O)(=O)CCO)cc2N2CCC(=C(F)F)CC2)c2cc3n(c12)CCC(F)(F)C3` [Example 378], the IC50 was no more than 0.05 µM in assay [1], no more than 0.2 µM in assay [2] and 7.7 µM in assay [3].

On to `N#Cc1ccc(NC(=O)c2ccc(NS(=O)(=O)CCO)cc2N2CCC3(CC2)CC3)c2cc3n(c12)CCC(F)(F)C3` [Example 379], for which the results for the IC50 in assay [1], in assay [2] and in assay [3] were no more than 0.05 µM, no more than 0.2 µM and 5.3 µM, respectively.

Consider `COc1ccc(NC(=O)c2ccc(NS(=O)(=O)CCO)cc2N2CCC3(CC2)CC3)c2cc3n(c12)CC(C)(C)OC3` [Example 455, 4-((2-hydroxyethyl)sulfonamido)-N-(6-methoxy-3,3-dimethyl-3,4-dihydro-1H-[1,4]oxazinyl[4,3-a]indol-9-yl)-2-(6-azaspiro[2.5]oct-6-yl)benzamide], for which the half-inhibitory concentration (IC50) was no more than 0.05 µM in assay [1] (Homo sapiens, OVCAR-3, 240 h); no more than 0.2 µM in assay [2] (Homo sapiens, HT-29, 144 h); greater than 10 µM in assay [3] (Homo sapiens, A2780, 144 h).

For `COc1ccc(NC(=O)c2ccc(NS(=O)(=O)CCO)cc2N2CCC(=C(F)F)CC2)c2cc3n(c12)CC(C)(C)OC3` [Example 465, 2-(4-(difluoromethylene)piperidin-1-yl)-4-((2-hydroxyethyl)sulfonamido)-N-(6-methoxy-3,3-dimethyl-3,4-dihydro-1H-[1,4]oxazinyl[4,3-a]indol-9-yl)benzamide], the IC50 in assay [1] is no more than 0.05 µM; in assay [2], no more than 0.2 µM; in assay [3], greater than 10 µM.

One may read the IC50 as the concentration that gives 50% inhibition. A lower IC50 goes with higher potency.
